Experimental data reported in PubChem BioAssay (NCI).
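Five concentrations, 48 hours, 96-well plates. Abbreviation: GI50, concentration required for 50% inhibition of growth. Definition used: TGI = concentration required for complete inhibition of growth.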

What was measured:
Assay in all cases: NCI-60 cell line screen, 48 h
786-0 renal = tested on: 786-0 renal
HCT-15 colon = tested on: HCT-15 colon
HL-60(TB) leukemia = tested on: HL-60(TB) leukemia
HS 578T breast = tested on: HS 578T breast
KM12 colon = tested on: KM12 colon
MDA-MB-231 breast = tested on: MDA-MB-231 breast
NCI-H23 lung = tested on: NCI-H23 lung
NCI/ADR-RES ovarian = tested on: NCI/ADR-RES ovarian
OVCAR-4 ovarian = tested on: OVCAR-4 ovarian
SNB-19 CNS = tested on: SNB-19 CNS

SMILES	GI50 (786-0 renal)	TGI (786-0 renal)	GI50 (HCT-15 colon)	TGI (HCT-15 colon)	GI50 (HL-60(TB) leukemia)	TGI (HL-60(TB) leukemia)	GI50 (HS 578T breast)	TGI (HS 578T breast)	GI50 (KM12 colon)	TGI (KM12 colon)	GI50 (MDA-MB-231 breast)	TGI (MDA-MB-231 breast)	GI50 (NCI-H23 lung)	TGI (NCI-H23 lung)	GI50 (NCI/ADR-RES ovarian)	TGI (NCI/ADR-RES ovarian)	GI50 (OVCAR-4 ovarian)	TGI (OVCAR-4 ovarian)	GI50 (SNB-19 CNS)	TGI (SNB-19 CNS)
O=c1c2sccc2n(CC2COc3ccccc3O2)c(=O)n1O (centres undefined)	41.7 µM	> 100 µM	4.53 µM	> 100 µM	16.9 µM	44.7 µM	15.1 µM	> 100 µM	9.21 µM	86 µM	39 µM	> 100 µM	6.88 µM	34.4 µM	23 µM	> 100 µM	13.9 µM	98.7 µM	12.8 µM	> 100 µM
CSc1nc(NC2OCC(OC(C)=O)C(OC(C)=O)C2OC(C)=O)c(N=CC=Nc2c(NC3OCC(OC(C)=O)C(OC(C)=O)C3OC(C)=O)nc(SC)[nH]c2=O)c(=O)[nH]1 (centres undefined)		> 100 µM		> 100 µM		> 100 µM		> 100 µM		> 100 µM		> 100 µM		> 100 µM		> 100 µM		> 100 µM		> 85.8 µM
O=C1NCC2(CCN(CCCC3(c4ccc(F)cc4)OCCO3)CC2)N1c1ccccc1		> 100 µM		> 100 µM		> 100 µM		> 100 µM		> 100 µM		> 100 µM		> 100 µM		> 100 µM		> 100 µM		> 100 µM
COc1ccc(/C=C(/C#N)n2nnc3cccc(F)c32)cc1	2.42 µM	> 100 µM	0.401 µM	> 100 µM	0.527 µM	16.2 µM	1.66 µM	6.41 µM	0.519 µM	4.54 µM	1.37 µM	3.84 µM	1.23 µM	6.3 µM	0.371 µM	3.37 µM	2 µM	> 100 µM	2.38 µM	82.1 µM
O=C(/C=C/c1ccc(Cl)cc1)c1ccc(Nc2ccnc3cc(Cl)ccc23)cc1	38.1 µM	> 100 µM	23.7 µM	> 100 µM	9.16 µM	59.6 µM	36.3 µM	> 100 µM	4.61 µM	44.3 µM	20.3 µM	> 58.4 µM	> 100 µM	> 100 µM	> 100 µM	> 100 µM	> 100 µM	> 100 µM	> 57.6 µM	> 100 µM
Cc1cc2c(cc1Cl)SC(N(N(C)C)S(=O)(=O)c1ccc(Cl)cc1)=NS2(=O)=O	34.8 µM	> 100 µM	25.9 µM	> 100 µM	35.2 µM	89.8 µM	23.4 µM	67.3 µM	22.9 µM	> 100 µM	22.5 µM	55 µM	31.2 µM	> 100 µM	28 µM	> 100 µM	23.4 µM	96.4 µM	25.2 µM	> 100 µM
C=C1NC(=O)C(C(C)CC)NC(=O)C2CSCC(NC(=O)CCC(=O)O)C(=O)NC(Cc3ccccc3)C(=O)NC(C)C(=O)NC(CC(C)CC)C(=O)NC(C(=O)NC(Cc3ccccc3)C(=O)N3CCCC3C(=O)N2)C(C)OC(=O)C(CO)NC(=O)C(C(O)COC)N(C)C(=O)C(C(C)C)NC(=O)C(CC(C)CC)NC1=O (centres undefined)	0.0358 µM	> 6 µM	0.0183 µM	> 6 µM	0.0211 µM		0.0115 µM	> 6 µM	0.00529 µM	> 6 µM	0.0201 µM	3.24 µM	0.1 µM	> 6 µM	0.0304 µM	> 6 µM	0.339 µM	> 6 µM	0.0255 µM	> 6 µM
Nc1ncnc2n[nH]c(Nc3ccc(F)cc3)c12	19.3 µM	> 100 µM	8.6 µM	> 100 µM	38.5 µM	> 100 µM	20.6 µM	> 100 µM	20.3 µM	86.3 µM	21.5 µM	81.2 µM	67.8 µM	> 100 µM	65.3 µM	> 100 µM	19 µM	75.2 µM	61.7 µM	> 100 µM
COc1ccc([C@H]2[C@@H](F)C(=O)N2c2cc(OC)c(OC)c(OC)c2)cc1F	0.0462 µM	15.1 µM	0.0664 µM	> 100 µM	0.0805 µM	0.399 µM	0.295 µM	> 100 µM	0.0596 µM	> 100 µM	0.355 µM	> 100 µM	0.273 µM	> 100 µM	0.0424 µM	> 100 µM	0.966 µM	> 100 µM	0.302 µM	> 100 µM
OCc1ccc(-c2ccc(-c3ccc(CO)s3)o2)s1		> 85.8 µM		81 µM		38.2 µM		86.6 µM		85.3 µM		> 92.2 µM		> 90.9 µM		71.5 µM		2.76 µM		> 100 µM
N=Nc1c(OC(=O)Nc2cccc(Cl)c2)[nH]c2ccccc12		18.2 µM		18.9 µM		30.9 µM		40 µM		14.3 µM		26.7 µM		12.1 µM		21.4 µM		19.6 µM		18.5 µM
CCCCCCCC(=O)SCC/C=C/[C@@H]1CC(=O)NCc2cc(ccn2)C2=N[C@@](C)(CS2)C(=O)N[C@@H](C(C)C)C(=O)O1	0.0291 µM	> 33.3 µM	0.141 µM	> 33.3 µM	0.0242 µM	> 33.3 µM	0.00745 µM	0.203 µM	0.0169 µM	2.41 µM	0.05 µM	> 33.3 µM	0.0394 µM	> 33.3 µM	0.241 µM	> 33.3 µM	0.0535 µM	> 33.3 µM	0.109 µM	> 33.3 µM
Cc1cc(/C=C/c2ccc3cc(N(C)C)ccc3[n+]2C)c(C)n1-c1ccccc1	0.262 µM	1.53 µM	1.31 µM	6.3 µM	0.0939 µM	0.352 µM	0.361 µM	9.56 µM	0.158 µM	0.843 µM	0.193 µM	1.09 µM	0.082 µM	1.76 µM	1.67 µM	13.4 µM	0.0723 µM	5.23 µM	0.161 µM	5.97 µM
CC[C@H](Nc1ncnc2nc[nH]c12)c1oc2ccccc2c(=O)c1-c1cccc(F)c1	21.4 µM	> 100 µM	26.9 µM	> 100 µM	11 µM	42.5 µM	14.1 µM	86.9 µM	23.7 µM	> 100 µM	16.6 µM	50.3 µM	29.7 µM	> 100 µM	21.3 µM	> 100 µM	23.1 µM	> 100 µM	30.5 µM	> 100 µM
COc1ccc(-c2nnc(COc3ccc(NC(=O)Nc4cc(C(F)(F)F)cc(C(F)(F)F)c4)cc3F)o2)cc1	2.2 µM	4.7 µM	2.01 µM	6.06 µM	2.34 µM	6.02 µM	1.99 µM	5.55 µM	1.51 µM	3.7 µM	1.99 µM	4.54 µM	1.8 µM	4.38 µM	1.91 µM	5.16 µM	2.29 µM	8.53 µM	3.33 µM	15.7 µM
C=C1C(=O)O[C@H]2[C@H]1CC/C(COC(=O)c1c[nH]c3ccccc13)=C\CC[C@@]1(C)O[C@@H]21	0.326 µM	1.13 µM	0.258 µM	0.773 µM	0.278 µM	0.789 µM	0.613 µM	6.83 µM	0.477 µM	2.36 µM	0.197 µM	0.447 µM	1.29 µM	3.76 µM	0.397 µM	11 µM	0.258 µM	0.842 µM	1.3 µM	2.91 µM
O=C(Nc1ccc(Cl)cc1)c1cccc(NC2=C(Cl)C(=O)N(Cc3ccccc3)C2=O)c1	7.83 µM	20.9 µM	12.2 µM	26.9 µM	4.37 µM	18.9 µM	13.2 µM	46.3 µM	48.5 µM	> 100 µM	4.44 µM	17.6 µM	4.81 µM	41.2 µM	10.3 µM	24.3 µM	12.5 µM	34.8 µM	17.6 µM	45.9 µM
